Values after ≈ are worked out from the molar mass of the structure shown.
Columns and labels:
[1] = tested on: S. aureus ATCC 33591; experiment: MIC assay; format: cell-based; settings: Staphylococcus aureus, ATCC33591; S. aureus ATCC 33591; read-out: Minimum inhibitory concentration
In short: (§1)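 Readout is the minimal inhibitory concentration by CLSI micro-dilution. Biological triplicates were performed, with S. aureus in TSB and E. faecium in BHI broth at 37° C.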

[2] = tested on: S. aureus JE2; experiment: MIC assay; format: cell-based; settings: Staphylococcus aureus; S. aureus JE2; read-out: Minimum inhibitory concentration
In short: as §1

[3] = tested on: S. aureus NCTC 8325; experiment: MIC assay; format: cell-based; settings: Staphylococcus aureus, NCTC8325; S. aureus NCTC 8325; read-out: Minimum inhibitory concentration
In short: as §1

[4] = tested on: S. aureus Newman; experiment: MIC assay; format: cell-based; settings: Staphylococcus aureus; S. aureus Newman; read-out: Minimum inhibitory concentration
In short: as §1

[5] = tested on: E. faecium C68; experiment: MIC assay; format: cell-based, Enterococcus faecium; settings: Enterococcus faecium; E. faecium C68; read-out: Minimum inhibitory concentration
Source text: (§2) Bacterial strains, growth conditions, and persister isolation. Methicillin-resistant S. aureus strains, MW2 BAA-1707, ATCC 33591, and JE2, methicillin-susceptible S. aureus strains, NCTC 8325, Newman, and ATCC 29213, vancomycin-resistant S. aureus strain, VRS1, Enterococcus faecium E007, vancomycin-resistant E. faecium strains, C68,^7 WB312, and WC196, Klebsiella pneumoniae WGLW2 (BEI Resources, Manassas, Va., USA), Acinetobacter baumannii ATCC 17978, Pseudomonas aeruginosa PA14, and Enterobacter aerogenes ATCC 13048 were used to test antimicrobial activity (Table 1). S. aureus strains were grown in tryptic soy broth (TSB) (BD, Franklin Lakes, N.J., USA), and E. faecium was grown in brain-heart infusion (BHI) broth (BD, Franklin Lakes, N.J., USA) at 37° C. K. pneumoniae, A. baumannii, P. aeruginosa, and E. aerogenes were grown in Luria Bertani (LB) broth (BD, Franklin Lakes, N.J., USA) at 37° C.
(§3) Minimal inhibitory concentration (MIC) assay. The MICS of antibiotics were determined by the standard micro-dilution method recommended by the Clinical and Laboratory Standards Institute. MIC assays were conducted in biological triplicate.

[6] = tested on: E. faecium WB312; experiment: MIC assay; format: cell-based, Enterococcus faecium; settings: Enterococcus faecium; E. faecium WB312; read-out: Minimum inhibitory concentration
Source text: as §2, §3

[7] = tested on: E. faecium WC196; experiment: MIC assay; format: cell-based, Enterococcus faecium; settings: Enterococcus faecium; E. faecium WC196; read-out: Minimum inhibitory concentration
Source text: as §2, §3

[8] = tested on: E.faecium E007; experiment: MIC assay; format: cell-based, Enterococcus faecium; settings: Enterococcus faecium; E.faecium E007; read-out: Minimum inhibitory concentration
Source text: as §2, §3

[9] = tested on: MRSA MW2; experiment: Serial passage resistance development; format: cell-based, S. aureus; settings: 25 days, sub-MIC concentrations
Method: Serial passage resistance development. […] Briefly, an extended range of concentrations of nTZDpa was generated by two-fold serial dilution with cation-adjusted Mueller Hinton (CaMH) broth (Difco, Detroit, USA) from three different starting concentrations (20, 24, and 32 μg/mL) covering 0.1875 to 32.0 μg/mL, which extended over three rows of the 96-well plate. Three sets of the extended gradient of nTZDpa were created in the 96-well plate to provide triplicates of the experiment. […] MRSA MW2 overnight cultures were adjusted to 1×10^6 CFU/mL in CaMH broth, and 50 μL of the diluted cultures were dispensed into the 96-well plates containing 50 μL of the extended gradient of antibiotics. After incubation for 24 h at 35° C., bacterial growth was determined by measuring optical density at 600 nm using a SpectraMax plate reader (Molecular Devices, Sunnyvale, Calif.), and growth was defined as an optical density reading of ≥0.1. Bacterial cells growing at the highest concentration of the antimicrobial (just below the MIC) were diluted 1:1000 in CaMH broth and then used to inoculate the next day's serial-passage plate. The remaining bacterial cells were stored at −80° C. in CaMH broth with 16% glycerol. This process was repeated for 25 days.

[10] = tested on: MRSA MW2; experiment: SYTOX Green membrane permeability assay; format: cell-based, S. aureus
Method: SYTOX Green membrane permeability assay. […] The washed cells were adjusted to OD600=0.4 with PBS. SYTOX Green (Molecular Probes, Waltham, Mass., USA) was added to 10 mL of the diluted bacterial suspension to a final concentration of 5 μM and incubated for 30 min at room temperature in the dark. 50 μL of the bacteria/SYTOX Green suspension was mixed with 50 μl of PBS containing twice the desired concentrations of compounds in black, clear-bottom, 96-well plates (Corning no. 3904). Fluorescence was measured at room temperature using a spectrophotometer (SpectraMax M2, Molecular Devices), with excitation and emission wavelengths of 485 nm and 525 nm, respectively. All experiments were conducted in biological triplicate.

[11] = tested on: GUVs DOPC/DOPG (7:3); experiment: Giant unilamellar vesicles (GUVs), observation of compound effects; settings: 4 μg/ml (1× MIC)
Method: Preparation of giant unilamellar vesicles (GUVs) and observation of compound effects on GUVs. GUVs were prepared by the electroformation method described previously. Dioleoyl-glycero-phosphocholine (DOPC), Dioleoyl-glycero-phosphoglycerol (DOPG) and Dioleoyl-glycero-phosphoethanolamine-N-lissamine rhodamine B sulfonyl (18:1 Liss Rhod PE) were purchased from Avanti Polar Lipids (Alabaster, Ala., USA). 4 mM of a lipid mixture consisting of DOPC/DOPG/18:1 Liss Rhod PE (7:3:0.005) was dissolved in chloroform. Indium tin oxide (ITO)-coated slides (50×75×1.1 mm, Delta Technologies, Loveland, Colo., USA) were coated with 40 μL of the lipid mixture and dried in a vacuum chamber for 2 h to remove chloroform. An electroformation chamber was made by placing a 2 mm thick Teflon spacer between the two lipid-coated ITO slides. After adding 2 mL of 100 mM sucrose into the electrofomation chamber, the chamber was sealed with binder clips, and then connected to an AC field function generator. The swelling of the lipid bilayers was facilitated by applying an electric AC-field (10 Hz). […] GUVs were detached from surfaces by reducing the AC-field from 10 Hz to 5 Hz for 20 min. The GUV suspension was diluted (1:30) in a 100 mM glucose solution. 49 μL of the diluted GUV suspension (˜100 vesicles) was added to a black, clear-bottom 384-well plate (Corning no. 3712). […]

[12] = tested on: MRSA MW2; experiment: Transmission electron microscopy; settings: 4× MIC for 2 h

O=C(O)c1c(Sc2ccccc2)c2cc(Cl)ccc2n1Cc1ccc(Cl)cc1 [nTZDpa]
MIC [1]: 4 µg/mL (≈ 9.34 µM)
MIC [2]: 4 µg/mL (≈ 9.34 µM)
MIC [3]: 4 µg/mL (≈ 9.34 µM)
MIC [4]: 4 µg/mL (≈ 9.34 µM)
MIC [5]: 4 µg/mL (≈ 9.34 µM)
MIC [6]: 4 µg/mL (≈ 9.34 µM)
MIC [7]: 4 µg/mL (≈ 9.34 µM)
MIC [8]: 4 µg/mL (≈ 9.34 µM)
increase of MIC over wild-type after serial passage [9]: no increase in the nTZDpa MIC was observed
concentration of maximum SYTOX Green fluorescence [10]: 16 µg/mL
time to formation of lipid aggregates on the surface of GUVs [11]: 10 s
time to rupture of GUVs [11]: 60 s
cell morphology by TEM [12]: formation of mesosome-like structures in most cells, abnormal cell division, and cell lysis

— US11690824B2, “Antibacterial compounds” (THE GENERAL HOSPITAL CORPORATION, priority 2018, dated 2023)
